Activity calls are given as the source filed them. How the calls were made is not given here.
target: fMet-Leu-Phe receptor (Homo sapiens) (UniProt P21462); experiment: formyl peptide receptor 1 antagonism, calcium readout – U937 cells, fMLFF stimulus, Fluo4, flow cytometry, SAR follow-up (AID 863); conditions: FPR-expressing U937 cells, fMLFF-induced Fluo4 calcium flux, 80 s, hits give high values, concentration not given here
Sequence (P21462 whole entry, looked up): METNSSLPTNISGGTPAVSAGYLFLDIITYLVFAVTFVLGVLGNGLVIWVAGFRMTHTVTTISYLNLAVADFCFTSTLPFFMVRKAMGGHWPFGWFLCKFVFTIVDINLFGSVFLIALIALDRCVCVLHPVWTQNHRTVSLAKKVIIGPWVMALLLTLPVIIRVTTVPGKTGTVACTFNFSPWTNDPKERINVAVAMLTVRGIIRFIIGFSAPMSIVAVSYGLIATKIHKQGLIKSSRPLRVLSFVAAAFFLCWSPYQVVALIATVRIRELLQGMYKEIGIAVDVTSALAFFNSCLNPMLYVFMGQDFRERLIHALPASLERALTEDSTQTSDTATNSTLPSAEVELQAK

Compound | inhibition
CCc1cc2c(=O)c(-c3nc4ccccc4n3C)c(C)oc2cc1OC(C)=O | 101%
COc1ccc(OC)c(C2/C(=C(\O)c3ccccc3)C(=O)C(=O)N2c2cccnc2)c1 (centres undefined) | 40.7% (inactive)
COCCN1C(=O)C(=O)/C(=C(/O)c2ccccc2)C1c1cc(OC)ccc1OC (centres undefined) | 97.5%
O=C(C1=C(O)C(=O)N(CCc2ccccc2)C1c1ccc(Cl)cc1)c1cccs1 (centres undefined) | 81.3% (inactive)
CCCCCCN1C(=O)C(=O)/C(=C(\O)c2ccccc2)C1c1ccc(O)c(OC)c1 (centres undefined) | 44% (inactive)
COc1ccc(C2/C(=C(\O)c3ccccc3)C(=O)C(=O)N2CCCn2ccnc2)c(OC)c1 (centres undefined) | 99.5%
COc1ccc(C2C(C(=O)c3cccs3)=C(O)C(=O)N2CCN2CCOCC2)c(OC)c1 (centres undefined) | 72.3% (inactive)
COc1ccc(C2C(C(=O)c3cccs3)=C(O)C(=O)N2CCCn2ccnc2)cc1 (centres undefined) | 96.9%

The next lines start with the values.

inhibition | Compound
98.8% | COc1ccccc1-c1c(C(F)(F)F)oc2cc(OC(=O)c3ccco3)ccc2c1=O
98.1% | Cc1nc2c(-c3ccc(Cl)cc3)c(C(F)(F)F)[nH]n2c(=O)c1Cc1ccccc1
93% | COc1ccc(-c2c(C(F)(F)F)oc3cc(OC(=O)c4ccco4)ccc3c2=O)cc1OC
85.6% (inactive) | COc1ccc(-c2c(C(F)(F)F)oc3cc(OC(=O)c4cccnc4)ccc3c2=O)cc1OC
58.1% (inactive) | COc1ccc(C2C(C(=O)c3ccco3)=C(O)C(=O)N2CCN2CCOCC2)c(OC)c1 (centres undefined)
185% | O=C(Oc1ccc2c(=O)c(-c3ccccc3Cl)c(C(F)(F)F)oc2c1)c1cccs1

Source: PubChem BioAssay AID863 (NMMLSC, 2007)
